Experimental data as given in ChEMBL document CHEMBL4152361, “Synthesis of oxidative metabolites of CRA13 and their analogs: Identification of CRA13 active metabolites and analogs thereof with selective CB2R affinity” (Bioorg Med Chem, 2018).

Columns and labels:
[1] = target: T1, Cannabinoid receptor 2 (Homo sapiens, UniProt P34972); assay: Displacement of [3H]CP55940 from membrane bound human CB2 receptor at 10 uM after 1 hr by beta scintillation counting method relative to control
[2] = target: T1, Cannabinoid receptor 2; assay: Displacement of [3H]CP55940 from membrane bound human CB2 receptor after 1 hr by beta scintillation counting method
[3] = species on record: Homo sapiens; assay: Selectivity ratio of IC50 for displacement of [3H]SR141716A from membrane bound human CB1 receptor to IC50 for displacement of [3H]CP55940 from membrane bound human CB2 receptor
[4] = target: T2, Cannabinoid receptor 1 (Homo sapiens, UniProt P21554); assay: Displacement of [3H]SR141716A from membrane bound human CB1 receptor at 10 uM after 1 hr by beta scintillation counting method relative to control
T2 sequence (P21554 whole entry): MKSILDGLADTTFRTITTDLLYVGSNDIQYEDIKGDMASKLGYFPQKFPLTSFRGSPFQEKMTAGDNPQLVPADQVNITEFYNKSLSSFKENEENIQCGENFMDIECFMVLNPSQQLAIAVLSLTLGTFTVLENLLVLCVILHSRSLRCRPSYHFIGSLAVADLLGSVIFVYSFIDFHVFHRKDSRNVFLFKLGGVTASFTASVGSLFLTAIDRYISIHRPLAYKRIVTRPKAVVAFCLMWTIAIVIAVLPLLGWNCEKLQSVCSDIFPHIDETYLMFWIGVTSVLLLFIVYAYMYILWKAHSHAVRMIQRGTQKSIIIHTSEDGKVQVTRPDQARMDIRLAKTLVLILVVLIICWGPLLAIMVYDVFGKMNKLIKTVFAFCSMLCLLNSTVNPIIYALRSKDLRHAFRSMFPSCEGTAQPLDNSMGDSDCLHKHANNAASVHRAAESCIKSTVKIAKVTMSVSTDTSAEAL

[5] = target: T2, Cannabinoid receptor 1; assay: Displacement of [3H]SR141716A from membrane bound human CB1 receptor after 1 hr by beta scintillation counting method
[6] = species on record: Homo sapiens; assay: Selectivity ratio of compound effect for displacement of [3H]CP55940 from membrane bound human CB2 receptor at 10 uM to compound effect for displacement of [3H]SR141716A from membrane bound human CB1 receptor at 10 uM
[7] = target: T1, Cannabinoid receptor 2; assay: Displacement of [3H]CP55940 from membrane bound human CB2 receptor at 100 uM after 1 hr by beta scintillation counting method relative to control
[8] = target: T2, Cannabinoid receptor 1; assay: Displacement of [3H]SR141716A from membrane bound human CB1 receptor at 100 uM after 1 hr by beta scintillation counting method relative to control
[9] = species on record: Homo sapiens; assay: Selectivity ratio of compound effect for displacement of [3H]SR141716A from membrane bound human CB1 receptor at 100 uM to compound effect for displacement of [3H]CP55940 from membrane bound human CB2 receptor at 100 uM

T1 sequence (P34972 whole entry): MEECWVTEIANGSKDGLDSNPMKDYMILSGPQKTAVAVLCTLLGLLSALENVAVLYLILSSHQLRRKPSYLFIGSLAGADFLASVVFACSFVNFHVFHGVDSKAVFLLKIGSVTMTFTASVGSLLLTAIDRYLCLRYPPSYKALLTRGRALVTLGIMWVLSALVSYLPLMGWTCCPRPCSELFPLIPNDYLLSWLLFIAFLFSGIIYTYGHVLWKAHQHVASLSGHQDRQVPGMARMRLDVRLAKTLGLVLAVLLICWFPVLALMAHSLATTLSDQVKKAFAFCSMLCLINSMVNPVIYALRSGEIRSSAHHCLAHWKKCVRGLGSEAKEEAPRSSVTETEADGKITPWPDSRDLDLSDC

Row | Structure (SMILES) | inhibition [1] [%] | IC50 [2] [µM] | Ratio IC50 [3] | inhibition [4] [%] | IC50 [5] [µM] | Selectivity ratio [6] | inhibition [7] [%] | inhibition [8] [%] | Selectivity ratio [9]
1 | O=C(c1cccc2ccccc12)c1ccc(OCCCCCO)c2ccccc12 | 75.3 | 1.08 | > 9.26 | 35.8 | > 10 | 2.1 |  |  | 
2 | O=C(c1cccc2ccccc12)c1ccc(OCCCO)c2ccccc12 | 37.4 | 14.7 | 6.81 | 21.3 | 100 | 1.76 | 78.5 | 55.6 | 
3 | COC(=O)CCCOc1ccc(C(=O)c2cccc3ccccc23)c2ccccc12 | 96.9 | 1.69 | 8.36 | 43.1 | 14.1 | 2.25 | 101 | 68.8 | 
4 | O=C(O)CCCOc1ccc(C(=O)c2cccc3ccccc23)c2ccccc12 |  | > 100 |  |  | > 100 |  | 5.36 | 16 | 2.99
5 | CCCCCOc1ccc(C(=O)c2cccc3ccccc23)c2ccccc12 | 64.2 | 5.3 |  | 64.2 |  |  |  |  | 
6 | O=C(c1cccc2ccccc12)c1ccc(OCCCCO)c2ccccc12 | 91.7 | 5.05 | 3.55 | 31.2 | 17.9 | 2.93 | 89.9 | 72 | 
7 | O=C(O)CCCCOc1ccc(C(=O)c2cccc3ccccc23)c2ccccc12 | 36.6 | 12.6 | > 7.92 | 13 | > 100 | 2.81 | 52.1 | 20.5 | 
8 | COC(=O)CCCCOc1ccc(C(=O)c2cccc3ccccc23)c2ccccc12 | 11.9 | 47.7 | > 2.1 | 4.44 | > 100 | 2.69 | 85.6 | 36.5 | 
9 | O=C(c1cccc2ccccc12)c1ccc(OCCCCCCO)c2ccccc12 | 46.9 | > 10 |  | 42.6 | > 10 | 1.1 |  |  | 
